Experimental data from US20160138077A1, “MONITORING AND ASSESSING DEACETYLASE ENZYME ACTIVITY” (THE GENERAL HOSPITAL CORPORATION, priority 2013, published 2016).

Assays:
Cathepsin B = target: T1, Cathepsin B (Homo sapiens, UniProt P07858); experiment: LCMS assay of protease enzymatic action on HP-1; format: biochemical; conditions: −SAHA, 5 μM HP-1, 12 hours at 37° C.
T1 construct: purchased EMD Millipore
Description: (§1) The enzymatic cleavage of HP-1 was analyzed by performing LCMS assays with sirtuin 1 and 3 (Cayman Chemicals) and the proteases chymotrypsin (Sigma-Aldrich), cathepsin (EMD Millipore), and pepsin* (Sigma-Aldrich). Solutions containing (i) vehicle with DMSO in HDAC buffer, (ii) 5 μM HP-1 in HDAC buffer, and (iii) 5 μM HP-1 and the enzyme in HDAC buffer were incubated for 12 hours at 37° C. Following incubation, a 20 μL aliquot of supernatant from each sample was analyzed by LCMS. Deacetylation of HP-1 was investigated by screening for the DHP-1 (M+H)^+ ion following positive electrospray ionization. All assay samples were analyzed in triplicate. […]
(§2) HP-1 was not altered by sirtuins 1 and 3 or the proteases chymotrypsin, cathepsin and pepsin, as determined by LCMS. […] For Cathepsin B, the cleavage of the enzyme substrate, z-RR-pNA (Santa Cruz Biotechnology, Dallas, Tex.) was monitored using a Wallac EnVision 2103 Multilabel fluorescence plate reader (PerkinElmer, Waltham, Mass.) with a 405 nm excitation filter, a 406 nm emission filter, and a gain of 150. The cleavage of the pepsin substrate, Ac-Phe-Tyr-OH (Chem-Impex Inc.), was monitored by LCMS at pH 4. […]

Chymotrypsin = target: T2, Chymotrypsin (Bos taurus, UniProt P00766); experiment: LCMS assay of protease enzymatic action on HP-1; format: biochemical; conditions: −SAHA, 5 μM HP-1, 12 hours at 37° C.
T2 construct: purchased Sigma-Aldrich
Description: as §1, §2

HeLa cells = experiment: Determination of HDAC activity in HeLa cells by LC-MS; format: cell-based; conditions: live HeLa cells, 5 μM, over 24 h
Description: HeLa cell culture and treatment with HP-1 and HP-2. HeLa cells (ATCC) were grown as a monolayer in Eagles Minimum Essential Medium (EMEM, GIBCO, BRL, Gaithersburg, Md.) with 10% Fetal Bovine Serum (FBS, GIBCO, BRL, Gaithersburg, Md.) and 1% penicillin/streptomycin ([…]). All cell culture dishes were maintained in a humidified atmosphere with 5% CO2 at 37° C.
Determination of HDAC activity in HeLa cells by LC-MS. HDAC activity in HeLa cells was analyzed by performing an LCMS assay. Solutions of HP-1 and HP-2 (200 mM each) were prepared in DMSO and diluted in HDAC buffer to a final concentration of 100 μM. […] Cells were scraped off of the flask, lysed in milipore water (90 μL) using a mechanical homogenizer, centrifuged (at 14,000×g for 2 min) and 20 μL aliquot of supernatant from each sample was analyzed by LCMS. […] The peak area for each detected compound was measured to determine the % conversion. For HP-1, the corresponding (M+H)^+ ion was detected. […] The peak area for each detected compound was measured to determine the % conversion of each probe. […]
Determination of HDAC activity in HeLa cells by LC-MS. […] Cells were scraped off of the flask, lysed in Millipore water using a mechanical homogenizer, and supernatant of the lysed samples were analyzed by LC-MS. […] The peak area for each detected compound was measured to determine the % conversion versus time (full experimental details in Example 1).

**Q.** Which results are given for `CC(=O)NC=CCCCCNC(=O)CCCCCNc1ccc([N+](=O)[O-])c2nonc12` [HP-1]?
**A.** % HP-1 to DHP-1 (Cathepsin B): 0%; % HP-1 to DHP-1 (Chymotrypsin): 0%; HP-1 cleaved (HeLa cells; absence of SAHA, LCMS of supernatants and lysates): 80%; Cleavage of HP-1 (HeLa cells; addition of SAHA (10 μM)): 20%
